Measured values taken from DBAASP.
Converted amounts (≈) assume the structure as drawn.

How the values were obtained:
Test in all cases: ≥ marks a high value that may be exact or a test limit, other limits are often not marked, values filed in µg/mL are converted to µM
[1] = test system: Bacillus subtilis
[2] = test system: Candida albicans ATCC 2002
[3] = test system: Escherichia coli ATCC 25922
[4] = test system: Staphylococcus aureus ATCC 2592
[5] = test system: Escherichia coli
[6] = test system: Klebsiella pneumoniae
[7] = test system: Micrococcus luteus
[8] = test system: Proteus mirabilis
[9] = test system: Pseudomonas aeruginosa
[10] = test system: Salmonella typhimurium
[11] = test system: Shigella dysenteriae
[12] = test system: Staphylococcus aureus
[13] = test system: Staphylococcus epidermidis
[14] = test system: Bacillus subtilis ATCC 6633
[15] = test system: Staphylococcus aureus ATCC 6538
[16] = test system: Pseudomonas aeruginosa ATCC 9027
[17] = test system: Bacillus subtilis ATCC 23857
[18] = test system: Klebsiella pneumoniae ATCC 700603
[19] = test system: Staphylococcus aureus ATCC 25923

| SMILES | MIC [1] | MIC [3] | MIC [4] | MIC [5] | MIC [6] | MIC [7] | MIC [8] | MIC [9] | MIC [10] | MIC [11] | MIC [12] | MIC [13] | also measured |
| --- | --- | --- | --- | --- | --- | --- | --- | --- | --- | --- | --- | --- | --- |
| CC[C@H](C)[C@@H]1NC(=O)[C@H](CO)NC(=O)[C@H](CCCCN)NC(=O)[C@H]([C@@H](C)O)NC(=O)[C@H](Cc2c[nH]c3ccccc23)NC(=O)[C@@H](NC(=O)CNC(=O)[C@H](CCCCN)NC(=O)[C@H](CC(C)C)NC(=O)[C@H](C)NC(=O)[C@H](C)N)CSSC[C@@H](C(=O)N[C@@H](Cc2ccccc2)C(=O)NCC(=O)N[C@@H](Cc2ccccc2)C(=O)O)NC(=O)[C@@H]2CCCN2C(=O)[C@H](CCCCN)NC(=O)[C@@H]2CCCN2C(=O)[C@@H]2CCCN2C1=O [AALKGCWTKSIPPKPCFGF] | 1.19 µM (≈ 2.44 µg/mL) | 1.38 µM (≈ 2.84 µg/mL) | 1.03 µM (≈ 2.12 µg/mL) | – | – | – | – | – | – | – | – | – | MIC [2]: 2.32 µM (≈ 4.76 µg/mL) |
| CC(C)C[C@H](NC(=O)[C@@H](NC(=O)[C@H](CCCCN)NC(=O)[C@H](CO)NC(=O)[C@H](C)NC(=O)[C@@H](NC(=O)[C@H](CCCCN)NC(=O)[C@H](Cc1ccccc1)NC(=O)[C@H](CC(C)C)NC(=O)[C@H](C)NC(=O)CNC(=O)[C@H](CC(C)C)NC(=O)[C@H](C)N)C(C)C)C(C)C)C(=O)O [ALGALFKVASKVL] | 19 µM (≈ 25 µg/mL) | – | – | 38 µM (≈ 50 µg/mL) | 76 µM (≈ 100 µg/mL) | ≥ 152 µM | ≥ 152 µM | 152 µM (≈ 200 µg/mL) | ≥ 152 µM | ≥ 152 µM | 9.49 µM (≈ 12.5 µg/mL) | ≥ 38 µM | – |
| CC(C)C[C@H](NC(=O)[C@H](C)NC(=O)CNC(=O)[C@H](CC(C)C)NC(=O)[C@@H](N)Cc1ccccc1)C(=O)N[C@@H](Cc1ccccc1)C(=O)N[C@@H](Cc1c[nH]c2ccccc12)C(=O)N[C@H](C(=O)N[C@@H](C)C(=O)N[C@@H](CO)C(=O)N[C@@H](CCCCN)C(=O)O)C(C)C [FLGALFWVASK] | ≥ 161 µM | – | – | > 161 µM | > 161 µM | ≥ 161 µM | ≥ 161 µM | > 161 µM | ≥ 161 µM | ≥ 161 µM | > 161 µM | ≥ 161 µM | – |
| CC(C)C[C@H](NC(=O)[C@@H](N)Cc1ccccc1)C(=O)NCC(=O)N[C@@H](C)C(=O)N[C@@H](Cc1c[nH]c2ccccc12)C(=O)N[C@@H](Cc1ccccc1)C(=O)N[C@@H](CCCCN)C(=O)N[C@H](C(=O)N[C@@H](C)C(=O)N[C@@H](CO)C(=O)N[C@@H](CCCCN)C(=O)O)C(C)C [FLGAWFKVASK] | ≥ 160 µM | – | – | > 160 µM | > 160 µM | ≥ 160 µM | ≥ 160 µM | > 160 µM | ≥ 160 µM | ≥ 160 µM | > 160 µM | ≥ 160 µM | – |
| CC(C)C[C@H](NC(=O)CNC(=O)[C@@H](NC(=O)[C@@H]1CCCN1C(=O)[C@H](CC(C)C)NC(=O)CNC(=O)[C@H](CC(N)=O)NC(=O)[C@H](CC(N)=O)NC(=O)[C@H](Cc1ccc(O)cc1)NC(=O)[C@@H](NC(=O)[C@H](CCCN=C(N)N)NC(=O)[C@H](CS)NC(=O)[C@H](CCCN=C(N)N)NC(=O)[C@H](Cc1cnc[nH]1)NC(=O)[C@H](CCCCN)NC(=O)[C@@H](N)CCCCN)C(C)C)[C@@H](C)O)C(=O)N[C@@H](Cc1ccc(O)cc1)C(=O)N[C@@H](CCCN=C(N)N)C(=O)N[C@@H](Cc1c[nH]c2ccccc12)C(=O)N[C@@H](CS)C(N)=O [KKHRCRVYNNGLPTGLYRWC] | – | – | – | – | – | – | – | – | – | – | – | – | MIC [15]: 2.4 µM (≈ 5.91 µg/mL) |
| CC(C)C[C@H](NC(=O)[C@H](CCCCN)NC(=O)[C@H](CCCCN)NC(=O)[C@H](C)NC(=O)[C@H](CC(C)C)NC(=O)[C@H](CCCCN)NC(=O)[C@H](CCCCN)NC(=O)[C@H](C)NC(=O)[C@H](Cc1ccccc1)NC(=O)[C@H](CCCCN)NC(=O)[C@H](CCCCN)NC(=O)[C@H](Cc1ccccc1)NC(=O)[C@H](CC(C)C)NC(=O)[C@H](CCCCN)NC(=O)[C@@H](NC(=O)[C@H](CCCCN)NC(=O)[C@H](CCCCN)NC(=O)[C@H](CCCCN)NC(=O)[C@H](Cc1ccccc1)NC(=O)[C@H](CC(C)C)NC(=O)[C@H](CCCCN)NC(=O)[C@H](Cc1c[nH]c2ccccc12)NC(=O)[C@@H](N)CCCCN)[C@@H](C)O)C(=O)O [KWKLFKKKTKLFKKFAKKLAKKL] | – | – | – | – | – | – | – | – | – | – | – | – | MIC [16]: > 69.5 µM; MIC [15]: 3.47 µM (≈ 10 µg/mL) |
| CC[C@H](C)[C@H](NC(=O)[C@H](CC(N)=O)NC(=O)[C@H](CCCN=C(N)N)NC(=O)CNC(=O)[C@H](CCSC)NC(=O)[C@H](CCCCN)NC(=O)[C@H](CCC(=O)O)NC(=O)[C@@H](NC(=O)[C@H](CCCCN)NC(=O)[C@H](CC(C)C)NC(=O)[C@H](Cc1ccccc1)NC(=O)[C@@H](NC(=O)[C@H](CCCCN)NC(=O)[C@H](CCC(=O)O)NC(=O)[C@H](CCCCN)NC(=O)[C@@H]1CCCN1C(=O)[C@@H](N)CCSC)C(C)C)[C@@H](C)CC)C(=O)N[C@@H](CCCN=C(N)N)C(=O)N[C@@H](CC(N)=O)C(N)=O [MPKEKVFLKIEKMGRNIRN] | – | – | – | – | – | – | – | – | – | – | – | – | MIC [16]: > 85.8 µM; MIC [15]: > 85.8 µM |

More lines, main results first:

| MIC [1] | MIC [3] | MIC [4] | MIC [5] | MIC [6] | MIC [7] | MIC [8] | MIC [9] | MIC [10] | MIC [11] | MIC [12] | MIC [13] | SMILES | also measured |
| --- | --- | --- | --- | --- | --- | --- | --- | --- | --- | --- | --- | --- | --- |
| – | – | 6.79 µM (≈ 12.5 µg/mL) | – | – | – | – | – | – | – | – | – | CC[C@H](C)[C@H](NC(=O)[C@H](CCCCN)NC(=O)[C@@H]1CCCN1C(=O)[C@H](Cc1ccccc1)NC(=O)[C@@H](NC(=O)[C@H](CO)NC(=O)CNC(=O)[C@H](CC(C)C)NC(=O)[C@H](C)NC(=O)[C@H](CCCCN)NC(=O)[C@H](CC(C)C)NC(=O)[C@H](C)NC(=O)[C@@H](NC(=O)[C@@H]1CCCN1C(=O)[C@H](CC(C)C)NC(=O)[C@@H](N)Cc1ccccc1)[C@@H](C)CC)[C@@H](C)CC)C(=O)N[C@@H](CC(C)C)C(N)=O [FLPIALKALGSIFPKIL] | MIC [14]: 27.2 µM (≈ 50 µg/mL) |
| – | 1.84 µM (≈ 3 µg/mL) | 1.23 µM (≈ 2 µg/mL) | – | – | – | – | – | – | 0.922 µM (≈ 1.5 µg/mL) | – | – | CC[C@H](C)[C@H](NC(=O)[C@@H]1CCCN1C(=O)[C@H](CC(C)C)NC(=O)[C@@H](N)Cc1ccccc1)C(=O)N[C@H](C(=O)NCC(=O)N[C@@H](CCCCN)C(=O)N[C@@H](CC(C)C)C(=O)N[C@@H](CC(C)C)C(=O)N[C@@H](CO)C(=O)NCC(=O)N[C@@H](CC(C)C)C(=O)N[C@@H](CO)C(=O)NCC(=O)N[C@@H](CC(C)C)C(=O)N[C@@H](CC(C)C)C(N)=O)C(C)C [FLPIVGKLLSGLSGLL] | MIC [2]: 4 µM (≈ 6.5 µg/mL) |
| 20.2 µM (≈ 50 µg/mL) | 10.1 µM (≈ 25 µg/mL) | 5.04 µM (≈ 12.5 µg/mL) | – | – | – | – | – | – | – | – | – | CC[C@H](C)[C@H](NC(=O)CNC(=O)[C@H](CO)NC(=O)[C@H](CC(C)C)NC(=O)[C@@H](N)Cc1ccccc1)C(=O)N[C@@H](CC(C)C)C(=O)N[C@@H](CCCCN)C(=O)N[C@@H](CC(C)C)C(=O)N[C@@H](C)C(=O)N[C@@H](Cc1ccccc1)C(=O)N[C@@H](CCCCN)C(=O)N[C@H](C(=O)N1CCC[C@H]1C(=O)N[C@@H](CO)C(=O)N[C@H](C(=O)N[C@@H](CC(C)C)C(=O)N[C@H]1CSSC[C@@H](C(=O)O)NC(=O)[C@H](CC(N)=O)NC(=O)[C@H](CCCCN)NC(=O)[C@H](CC(C)C)NC(=O)[C@H](C(C)C)NC(=O)[C@H](C)NC1=O)C(C)C)[C@@H](C)CC [FLSGILKLAFKIPSVLCAVLKNC] | MIC [2]: 10.1 µM (≈ 25 µg/mL) |
| ≥ 39.9 µM | – | – | 79.8 µM (≈ 100 µg/mL) | 79.8 µM (≈ 100 µg/mL) | ≥ 79.8 µM | ≥ 160 µM | > 160 µM | ≥ 160 µM | ≥ 160 µM | 19.9 µM (≈ 25 µg/mL) | ≥ 79.8 µM | CC(C)C[C@H](NC(=O)[C@H](C)NC(=O)CNC(=O)[C@H](Cc1c[nH]c2ccccc12)NC(=O)[C@@H](N)Cc1ccccc1)C(=O)N[C@@H](Cc1ccccc1)C(=O)N[C@@H](CCCCN)C(=O)N[C@H](C(=O)N[C@@H](C)C(=O)N[C@@H](CO)C(=O)N[C@@H](CCCCN)C(=O)O)C(C)C [FWGALFKVASK] | – |
| – | 16 µM (≈ 23.2 µg/mL) | – | – | – | – | – | – | – | – | – | – | CC[C@H](C)[C@H](NC(=O)[C@H](CCCCN)NC(=O)[C@H](CCCCN)NC(=O)[C@H](C)NC(=O)[C@@H](NC(=O)[C@H](C)NC(=O)[C@H](CC(C)C)NC(=O)[C@H](CC(C)C)NC(=O)[C@H](CCCCN)NC(=O)[C@H](CCCCN)NC(=O)[C@H](CC(C)C)NC(=O)[C@H](CC(N)=O)NC(=O)[C@@H](N)CC(C)C)C(C)C)C(N)=O [LNLKKLLAVAKKI] | MIC [17]: 8 µM (≈ 11.6 µg/mL); MIC [18]: 64 µM (≈ 92.9 µg/mL); MIC [16]: 16 µM (≈ 23.2 µg/mL); MIC [19]: 128 µM (≈ 186 µg/mL) |
| ≥ 82 µM | – | – | 164 µM (≈ 200 µg/mL) | > 164 µM | ≥ 82 µM | ≥ 164 µM | > 164 µM | ≥ 164 µM | ≥ 164 µM | 82 µM (≈ 100 µg/mL) | ≥ 164 µM | CC(C)C[C@H](NC(=O)[C@H](C)NC(=O)CNC(=O)[C@H](CC(C)C)NC(=O)[C@@H](N)Cc1c[nH]c2ccccc12)C(=O)N[C@@H](Cc1ccccc1)C(=O)N[C@@H](CCCCN)C(=O)N[C@H](C(=O)N[C@@H](C)C(=O)N[C@@H](CO)C(=O)N[C@@H](CCCCN)C(=O)O)C(C)C [WLGALFKVASK] | – |
